Source: patent US20050267067A1, “Radical reaction inhibitors, method for inhibition of radical reactions, and use thereof” (priority 2002, published 2005)
Blank lines part the entries; values can stand above or below the molecule they belong to.

What was measured:
[1] = Oxidation of rat small intestinal mucosal enzyme solution by AAPH (conjugated diene, TBARS); type: biochemical
Experimental: As a model system for examining the influence of cyclotetrasaccharide on small intestinal mucous disorders, there was provided a system for examining the influence of cyclotetrasaccharide on the oxidation of a rat small intestinal mucosal enzyme solution by 2,2-azo-bis(2-amidinopropane)-dihydrochloric acid (AAPH).
To two grams of a rat small intestinal mucosal acetone powder, commercialized by Sigma Chemical Company, St. Louis, Mo., USA, was added 20 ml of 50 mM PBS (pH 7.2) and homogenized in ice bath. The mixture was centrifuged at 10,000 rpm for 10 min to obtain a supernatant for use as a rat small intestinal mucosal enzyme solution containing 10 mg/ml of proteins. A half milliliter of the rat small intestinal mucosal enzyme solution, 0.5 ml of a 100 mM AAPH solution, and 0.5 ml of a 200 mM of the crystalline cyclotetrasaccharide pentahydrate prepared in Experiment 1-1 were mixed, followed by incubation at 37° C. for […]. During the incubation, the mixture was sampled at two and six hours after initiating the incubation for quantifying the formed conjugated diene, while the specimens sampled at six hours after initiating the incubation were quantified for the formed TBARS.

[2] = test system: maltase; assay: Maltase activity of rat small intestinal mucosal enzyme solution after AAPH oxidation; type: biochemical
Experimental: One milliliter of the above rat small intestinal mucosal enzyme solution, one milliliter of a 100 mM AAPH solution, one milliliter of a 50 mM phosphate buffer (pH 7.2), and one milliliter of a 400 mM of the crystalline cyclotetrasaccharide pentahydrate prepared in Experiment 1-1 were mixed, incubated at 37° C. for two hours, and measured for the activities of sucrase and maltase. […] To a half milliliter of a maltose solution, which had been prepared by dissolving maltose in 50 mM sodium maleate (pH 6.6) to give a concentration of one percent (%), 0.05 ml of a AAPH-rat small intestinal mucosal enzyme solution. After incubated at 37° C. for 30 min, the mixture was quantified for free glucose by the GOD method. One unit (U) activity of maltase was defined as an enzyme amount that releases two micromoles of glucose per minutes from maltose at 37° C.

[3] = Inhibition of hydroxy radical formation (H2O2/iron sulfate, DMPO spin trap, ESR); details: for Amount of formed hydroxy radical: ESR peak ratio to Mn2+ standard, relative value; for Hydroxy radical formation (%): versus system with no saccharide
Experimental: Each of the resulting mixtures was mixed to initiate reaction, injected into a cell for measuring electron spin resonance spectrum (ESR), set to a detector, and measured for formation level of hydroxy radical at a prescribed period of time after initiating reaction. […] For measurement of ESR, “Free Radical Monitor JES-FR30” was used, and the formation level of hydroxy radical was determined by calculating a ratio of a peak level detected first after initiating the measurement among the characteristic signal peaks characteristic of 5,5-dimethyl-1-pyrroline-oxide-OH (hydroxy radical), used as a spin trapping agent, and a peak level of Mn^2+ of an external standard installed in the apparatus of “JES-FR30”, and expressed as relative values in Table 1.

[4] = test system: calf serum albumin (BSA); assay: Modification of BSA by lipid peroxides (protein carbonyl, OLAARPs); type: biochemical; details: for OLAARPs Formation: (%) / Protein carbonyl Formation: (%): BSA, versus no saccharide; for Formed OLAARPs / Formed Protein carbonyl: 37° C., 24 hours
Experimental: In this experiment, saccharide solutions were prepared to give an equal total saccharide molar concentration in each solution.
As a negative control, PBS was used.
To five milliliters of either of the above saccharide solutions for testing or the negative control was added 10 mg of calf serum albumin (BSA) or L-lysine, followed by dissolving. To each of the resulting solutions was added 25 μg of 2,4-decadienal or malondialdehyde (MDA) as a lipid peroxide, followed by reaction at 37° C. for 24 hours. After completion of the reaction, protein carbonyl and reaction products of oxidized lipids/aminoacids (OLAARPs) formed as aldehyde adducts were quantified on the calorimetric method. […] The formation levels of protein carbonyl and OLAARPs were determined based on the absorbances obtained in this experiment, in terms of the molar absorbance coefficient for each molecule as disclosed in Biochim. Biophys.
To each of the resulting mixtures was added 600 μl of 30% trichloroacetic acid, and the mixture was allowed to stand at 0° C. for one hour and centrifuged at 10,000 rpm for 15 min to obtain a precipitate, followed by washing the resulting precipitate four times with two milliliters of ethanol/ethylacetate (1:1), respectively, adding 1.5 ml of 6M-guanidine hydrochloride/20 mM-NaPi/TFA (pH 2.3) to the resultant, allowing the mixture to stand at 37° C. for 30 min, and measuring the absorbance of the resulting mixture at a wavelength of 580 nm, ε=35,000 M^−1 cm^−1.

[5] = 2,4-decadienal, listed as cyclotetrasaccharide
[6] = MDA, listed as cyclotetrasaccharide
[7] = added lipid peroxide 2,4-decadienal
[8] = added lipid peroxide malondialdehyde (MDA)

Formed conjugated diene ([1]; reaction time 0 hr, AAPH, 37° C.): 0.00 μg/mg-protein | Formed conjugated diene ([1]; reaction time 2 hr, AAPH, 37° C.): 2.46 μg/mg-protein | Conjugated diene formation: (%) ([1]; reaction time 2 hr, versus system with no cyclotetrasaccharide): (15) % | Formed conjugated diene ([1]; reaction time 6 hr, AAPH, 37° C.): 61.84 μg/mg-protein | Conjugated diene formation: (%) ([1]; reaction time 6 hr, versus system with no cyclotetrasaccharide): (60) % | Formed TBARS ([1]; six hours after initiating the incubation, AAPH, 37° C.): 3.71 µg/mg-protein | TBARS formation (%) ([1]; six hours, versus system with no cyclotetrasaccharide): (61) % | Maltase activity ([2]; enzyme solution incubated with AAPH at 37° C. for two hours, with or without cyclotetrasaccharide): 0.0669 u/mg-protein | Maltase Relative residual activity (%) ([2]; versus system with no AAPH, 37° C., two hours): (85) %
SMILES: OCC1OC2OCC3O[C@H](O[C@H]4C(O)C(CO)OC(OCC5O[C@H](O[C@@H](C1O)C2O)C(O)C(O)[C@@H]5O)C4O)C(O)C(O)[C@@H]3O (stereo partly drawn) [Cyclotetrasaccharide, cyclo{→6}-α-D-glucopyranosyl-(1→3)-α-D-glucopyranosyl-(1→6)-α-D-glucopyranosyl-(1→3)-α-D-glucopyranosyl-(1→}]
Amount of formed hydroxy radical ([3]; 15 mM saccharide): 1.009 | Hydroxy radical formation (%) ([3]; 15 mM saccharide): (34) % | Hydroxy radical formation (%) ([3]; 15 mM saccharide, listed as cyclotetrasaccharide): about 34% | Amount of formed hydroxy radical ([3]; 38 mM saccharide): 0.265 | Hydroxy radical formation (%) ([3]; 38 mM saccharide): (9) % | Hydroxy radical formation (%) ([3]; 38 mM saccharide, listed as cyclotetrasaccharide): about 9% | Amount of formed hydroxy radical ([3]; 75 mM saccharide): 0.228 | Hydroxy radical formation (%) ([3]; 75 mM saccharide): (8) % | Amount of formed hydroxy radical ([3]; 150 mM saccharide): 0.125 | Hydroxy radical formation (%) ([3]; 150 mM saccharide): (4) % | OLAARPs Formation: (%) ([4]; 2,4-decadienal): (69) % | Protein carbonyl Formation: (%) ([4]; 2,4-decadienal): (45) % | OLAARPs Formation: (%) [4, 5]: about 69% | Protein carbonyl Formation: (%) [4, 5]: about 45% | OLAARPs Formation: (%) ([4]; MDA): (80) % | Protein carbonyl Formation: (%) ([4]; MDA): (45) % | OLAARPs Formation: (%) [4, 6]: about 80% | Protein carbonyl Formation: (%) [4, 6]: about 45% | Formed OLAARPs [4, 7]: 2.92 μmol/g-BSA | Formed Protein carbonyl [4, 7]: 6.34 μmol/g-BSA | Formed OLAARPs [4, 8]: 4.68 μmol/g-BSA | Formed Protein carbonyl [4, 8]: 1.09 μmol/g-BSA

SMILES: OC[C@H]1O[C@H](O[C@H]2O[C@H](CO)[C@@H](O)[C@H](O)[C@H]2O)[C@H](O)[C@@H](O)[C@@H]1O [α, α-Trehalose, α, α-trehalose, reference compound]
OLAARPs Formation: (%) ([4]; 2,4-decadienal): (63) % | Protein carbonyl Formation: (%) ([4]; 2,4-decadienal): (58) % | OLAARPs Formation: (%) ([4]; MDA): (56) % | Protein carbonyl Formation: (%) ([4]; MDA): (60) % | Formed OLAARPs [4, 7]: 2.67 μmol/g-BSA | Formed Protein carbonyl [4, 7]: 8.26 μmol/g-BSA | Formed OLAARPs [4, 8]: 3.24 μmol/g-BSA | Formed Protein carbonyl [4, 8]: 1.45 μmol/g-BSA
